The results in this text go back to patent publication US9540647B2, “Methods and compositions for the treatment of cancer” (University of South Alabama, priority 2010, dated 2017).

Test [1] has as its system OPN. The test can be described thus: OPN expression in osteoblastic cells treated with cyclopamine (qRT-PCR, immunoblot). Type of test: cell-based, human. As to the method:
Quantitative RT-PCR (qRT-PCR)—cDNA was generated using High Capacity Reverse Transcriptase Kit (Applied Biosystems, Foster City, Calif.). Real time PCR was performed using a BioRad iQ5 Real-Time Detection system (Bio-Rad, Hercules, Calif.). All reactions were done in triplicate. OPN transcript levels were normalized to GAPDH levels (dCT) which was used to calculate changes in OPN expression (2-ddCT). […] The primers used included Sppl (OPN) (Mm 00436767_m1); Bglap (osteocalcin) (Mm 01741771_g1); IBSP (Mm 00492555_m1); PTHrP (Mm 00433057_m1); RANKL (Mm 00441906_m1); GAPDH (Mm 99999915_g1).
For orientation: Quantitative PCR measures a nucleic acid by following its amplification.

Test [2] deals with OPN. The test can be described thus: Secreted OPN in conditioned media of MDA-MB-435 cells (Western blot). Type of test: cell-based, human. As to conditions: 10 μM and 20 μM cyclopamine vs DMSO. Here is the method:
Stable vector only and non-targeting (scrambled control) transfectants were also generated. Stable transfectants were selected on medium supplemented with 500 μg/ml Geneticin (Invitrogen). The four GLI1-knocked down clones chosen were based on the extent of GLI1 knockdown and were termed KO1, KO2, KO3, and KO4. The expression of OPN was restored in the KO1 cells by transfecting with pcDNA3.1-OPN. A corresponding vector-only transfectant was also generated. Transfectants were selected on medium containing Geneticin (500 μg/ml) and hygromycin (750 μg/ml). Serum-free conditioned medium harvested from approximately 3.0×10^6 cells after 24 hr was assayed for OPN by immunoblotting.
Western Blotting Analysis—Whole cell lysates were collected in Nonidet P-40 buffer (150 mM NaCl, 50 mM Tris, 1% Nonidet P-40). Isolation of cytosolic and nuclear fractions was done as previously reported (15). Total protein (30 μg) was resolved by SDS-PAGE gel and transferred to polyvinylidene difluoride membranes. […] Secreted OPN was assessed by loading an equal quantity of protein from the serum-free conditioned medium. […]
(In western blotting, separated proteins are transferred to a membrane and probed.)

Test [3] concerns OPN. Put plainly: OPN expression in RAW264.7 pre-osteoclasts in response to SHH. The class given is cell-based, murine. As to conditions: RAW264.7 cells. Here is the method:
Western Blotting Analysis—Whole cell lysates were collected in NP-40 buffer (150 mM NaCl, 50 mM Tris, 1% NP-40). Total protein (30 μg) was resolved by SDS-PAGE gel and transferred to PVDF membranes. Membranes were immunoblotted overnight at 4° C. with antibodies to either SHH (Santacruz, Calif., USA) or IHH (Santacruz). Equal loading was confirmed with anti-β-tubulin (Cell Signaling, Danvers, Mass.). To assess OPN expression upon SHH treatment, […] were grown in 6-well plates in the presence of SHH. After 24 hours the cells were lysed in NP-40 buffer and 30 μg of each experimental group assessed by immunoblotting. To assess for the expression of OPN, MMP9 and CTSK, at the end of Day 6 of differentiation, all the different experimental groups were kept in serum free medium for 24 hrs and both, the conditioned media and whole cell lysates were collected and immunoblotted using antibodies to either anti-mouse OPN (Millipore, Bedford, Mass.), or CTSK (SantaCruz Biotech). Equal loading was confirmed with anti-β-actin (Sigma) antibody. Secreted MMP9 (Santa Cruz Biotech) was assessed by loading equal quantity of protein from the serum-free conditioned medium. Corresponding HRP conjugated secondary antibodies were used for detection; blots were developed with SuperSignal enhanced chemiluminescence substrate (Pierce, Rockford, Ill.) and imaged using a Fuji LAS3000 imager. Detection and quantification of proteins was done using Fuji LAS 3000 apparatus and Multigauge V3.1 software (Fujifilm, Valhalla, N.Y.). Band intensities were measured in arbitrary Units (AU). […]
Luciferase Assay—Cells were co-transfected with the OPN promoter construct, pGL3-OPNB and pSV-β-galactosidase (Promega) (Das, S., et al. (2009) J Biol Chem 284, 22888-22897). […] Readings were normalized to β-galactosidase. […]
Quantitative RT-PCR (qRT-PCR)—cDNA was generated using High Capacity Reverse Transcriptase Kit (Applied Biosystems, Foster City, Calif.). […] Following the experimental regime as described herein (for Osteoclast differentiation/activity) RNA was isolated using Trizol (Invitrogen) and assessed as described herein. […]

Consider `CC1=C2C[C@H]3[C@@H](CC=C4C[C@@H](O)CC[C@@]43C)[C@@H]2CC[C@]12O[C@@H]1C[C@H](C)CN[C@H]1[C@H]2C` [cyclopamine], for which, in test [1] (hFOB cells, cyclopamine 5 μM, 10 μM, 20 μM), the “OPN mRNA levels” value is “decreases OPN mRNA levels”. For the same molecule, in test [1] (osteoblastic cells in presence of cyclopamine), the “expression of total OPN” value was “decreased”. Further, the “secreted OPN” value in test [1] (osteoblastic cells, cyclopamine 5, 10 and 20 μM, dose and time dependent) is “decreased”. Moreover, the “expression of OPN transcript” value in test [1] (osteoblastic cells, cyclopamine (20 μg/ml), real time PCR) is “decreased the expression of OPN transcript”. Further, the “OPN in the secretome” value in test [2] is on record as “decreased”.

Take “SHH: recombinant Sonic Hedgehog ligand (R & D Systems)”: the “expression of OPN (immunoblot)” value in test [3] (24 hours post SHH treatment) is “stimulates the expression of OPN”. The OPN promoter activity result in test [3] (24 hours post-SHH treatment) is on record as “significantly (p<0.05) higher”. Moreover, the “levels of OPN mRNA” value in test [3] (recombinant SHH vs untreated) is recorded as “significantly greater levels of OPN mRNA”.
